# Results reported in PMC7312527 (International Journal of Molecular Sciences, 2020).
# Tested on: histone H3 phosphorylation (Ser10) in human astrocytes
# Assay: Global histone H3 phosphorylation (Ser10) colorimetric assay
# Format: cell-based
# Settings: for amount of phosphorylated H3Ser10 / phosphorylation of H3Ser10 in comparison to 100% control: 24 h
# Procedure: Cell culture: Human astrocytes (HA, Sciencell, USA) were grown in the Astrocyte Cell Medium (Sciencell) supplemented with 2% fetal bovine serum (Sciencell), 1% Astrocyte Cell Growth Supplement (Sciencell), and 1% penicillin/streptomycin solution (Sciencell). Cells were cultured in the incubator at 37 °C and 5% CO2. To start the experiment, cells were seeded at the density of 1.5 × 10^6 cells/well in the flasks and were kept in the incubator (37 °C, 5% CO2) for 24 h. After the incubation period, the medium was removed. Then, the cells were exposed to compound 3c (1 µM and 0.025 µM) or nothing but control medium for 24 h. Then, cells were collected and histone extracts from them were prepared.
# The levels of histone H3 phosphorylation (Ser10) were determined using a Global Histone H3 phosphorylation (Ser10) colorimetric assay kit (Epigentek) according to the manufacturer’s instructions. In the assay, the phosphorylated histone H3 at ser10 is captured in the wells of a 96-well plate coated with an anti-phospho histone H3 antibody. The captured phosphorylated histone H3 (Ser10) is detected with a labeled detection antibody followed by a color development reagent. […]
compound,measurement,setting,value
O=C(NCCCCNc1c2c(nc3ccccc13)CCCC2)c1cc(Cl)cc(Cl)c1 [Compound 3c],amount of phosphorylated H3Ser10,0.025 µM,28.26 µg/mg
same,phosphorylation of H3Ser10 in comparison to 100% control,0.025 µM,105.64%
same,DNA damage,1 µM and 0.025 µM,not observed
same,amount of phosphorylated H3Ser10,1 µM,29.08 µg/mg
same,phosphorylation of H3Ser10 in comparison to 100% control,1 µM,108.69%
